Paper PMC6695811, “Protein Phosphatase Ppz1 Is Not Regulated by a Hal3-Like Protein in Plant Pathogen Ustilago maydis” (International Journal of Molecular Sciences, 2019)

Assays:
Assay in all cases: phosphatase activity assay
Assay type in all cases: biochemical
Settings in all cases: 10 mM pNPP
UmPpz1 = target: T1, UmPpz1 (Mycosarcoma maydis, UniProt A0A0D1DW62)
T1 construct: gene UMAG_04827; full-length ORF, 497 residues, from FB1 genomic DNA in pGEX-6p-1, E. coli BL21(DE3) RIL, GST tag cut by PreScission
T1 sequence (A0A0D1DW62 1-497): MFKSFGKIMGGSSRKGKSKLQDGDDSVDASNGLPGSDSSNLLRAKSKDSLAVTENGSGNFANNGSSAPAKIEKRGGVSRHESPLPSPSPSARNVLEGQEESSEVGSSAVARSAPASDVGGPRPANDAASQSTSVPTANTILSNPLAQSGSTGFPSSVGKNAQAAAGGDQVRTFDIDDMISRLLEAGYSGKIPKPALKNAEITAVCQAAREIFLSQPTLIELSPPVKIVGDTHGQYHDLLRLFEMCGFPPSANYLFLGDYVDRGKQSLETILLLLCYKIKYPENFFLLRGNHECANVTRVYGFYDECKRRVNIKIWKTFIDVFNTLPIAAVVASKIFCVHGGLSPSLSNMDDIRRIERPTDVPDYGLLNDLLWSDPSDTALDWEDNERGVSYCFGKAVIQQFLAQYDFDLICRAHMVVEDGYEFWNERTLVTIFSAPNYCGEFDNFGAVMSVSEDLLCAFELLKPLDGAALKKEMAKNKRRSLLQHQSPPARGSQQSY

ScPpz1 = target: T2, ScPpz1 (Saccharomyces cerevisiae, UniProt P26570)
T2 construct: gene PPZ1; full length, 692 residues, GST fusion from E. coli BL21(DE3) RIL, GST tag cut by PreScission
T2 sequence (P26570 1-692): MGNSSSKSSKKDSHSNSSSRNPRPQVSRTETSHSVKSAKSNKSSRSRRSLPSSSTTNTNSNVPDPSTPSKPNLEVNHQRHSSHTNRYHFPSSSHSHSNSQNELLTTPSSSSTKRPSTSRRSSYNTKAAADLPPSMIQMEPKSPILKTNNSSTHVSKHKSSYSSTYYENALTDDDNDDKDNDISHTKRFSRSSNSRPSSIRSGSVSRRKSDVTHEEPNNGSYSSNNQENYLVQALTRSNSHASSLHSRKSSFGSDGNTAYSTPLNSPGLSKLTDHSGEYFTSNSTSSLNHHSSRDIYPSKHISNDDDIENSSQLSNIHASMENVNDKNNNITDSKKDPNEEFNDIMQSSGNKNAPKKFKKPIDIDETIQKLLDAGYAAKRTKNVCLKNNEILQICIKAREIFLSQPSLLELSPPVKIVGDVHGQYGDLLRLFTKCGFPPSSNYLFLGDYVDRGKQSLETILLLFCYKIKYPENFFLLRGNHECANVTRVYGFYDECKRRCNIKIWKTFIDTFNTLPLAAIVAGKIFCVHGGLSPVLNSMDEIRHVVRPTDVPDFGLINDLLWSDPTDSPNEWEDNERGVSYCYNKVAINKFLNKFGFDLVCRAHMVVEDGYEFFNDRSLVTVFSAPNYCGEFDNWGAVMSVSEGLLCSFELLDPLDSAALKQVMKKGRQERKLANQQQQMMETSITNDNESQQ

UmPpz1-s = target: T3, UmPpz1-s (Mycosarcoma maydis, UniProt A0A0D1DW62)
T3 construct: gene UMAG_04827; short version lacking residues 1-8 (starts at Met9), pGEX-6p-1, E. coli BL21(DE3) RIL, GST tag cut by PreScission
T3 sequence (A0A0D1DW62 9-497): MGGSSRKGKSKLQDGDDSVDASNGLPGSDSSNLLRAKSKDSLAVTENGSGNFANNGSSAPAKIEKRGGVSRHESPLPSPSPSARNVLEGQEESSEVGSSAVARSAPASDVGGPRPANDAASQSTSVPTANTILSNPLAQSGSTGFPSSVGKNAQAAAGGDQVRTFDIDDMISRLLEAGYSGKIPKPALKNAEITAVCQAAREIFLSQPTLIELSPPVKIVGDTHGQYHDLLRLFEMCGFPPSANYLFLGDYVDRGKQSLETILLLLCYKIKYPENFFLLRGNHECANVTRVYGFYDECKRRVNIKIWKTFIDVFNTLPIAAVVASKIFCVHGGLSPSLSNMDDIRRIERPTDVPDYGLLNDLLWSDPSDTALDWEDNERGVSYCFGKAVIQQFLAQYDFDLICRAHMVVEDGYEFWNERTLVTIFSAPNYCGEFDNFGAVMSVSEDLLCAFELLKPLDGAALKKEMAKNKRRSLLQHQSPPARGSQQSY

## O=[N+]([O-])c1ccc(OP(=O)(O)O)cc1 [p-nitrophenylphosphate]
UmPpz1
  phosphatase activity assay: showed phosphatase activity against the synthetic substrate pNPP
ScPpz1
  phosphatase activity assay: substrate pNPP which was similar to that observed for ScPpz1
UmPpz1-s
  phosphatase activity assay: The recombinant enzyme (as well as UmPpz1-s) showed phosphatase activity against the synthetic substrate pNPP
